Test results published in patent US5153183A, “Methylenediphosphonic acid compounds and methods of use for the treatment of rheumatism and osteophorosis” (Toray Industries, Inc., priority 1989, dated 1992).

Key:
osteoclasts = assay: Bone resorption inhibition test; assay type: cell-based; conditions: Mus musculus, Osteoclast, 120 h, active-type vitamin D3 (10^-10 M), ivory lamella, 5 days, read-out: Bone resorption inhibiting rate against control group
Protocol: With an osteoclast fraction prepared from the hindleg of a mouse placed on a lamella of ivory and stimulated by active-type vitamin D3 there is an resorption lacuna produced on the surface of ivory due to the absorption activity of the osteoclast. Using this absorption model of the bone, the bone resorption inhibiting effect of the compound of the invention was examined according to the following procedure.
5 μl of a suspension of osteoclasts prepared from the hindleg of a mouse was placed on a lamella of ivory and cultured in 500 μl of a 5% calf serum α-added MEM medium containing active-type vitamin D3 (10^-10 M) and the compound of the present invention ([…] or 10^-5 M) for 5 days. After culturing, the osteoclasts were removed from the ivory lamella, and the ivory was stained. The total area of resorption lacunae which became obvious by staining was calculated through image analysis. The bone absorption inhibiting rate was calculated by the formula [formula]

Lewis female rat = assay: Adjuvant arthritis test; assay type: in vivo; conditions: 50 mg/kg oral daily, 8th to 21st day after adjuvant injection, 6 cases; for Edema inhibiting rate against control group, +14 day, Left / Edema inhibiting rate against control group, +21 day, Left: left hindpaw (injected); for Edema inhibiting rate against control group, +14 day, Left / Edema inhibiting rate against control group, +14 day, Right: day 14; for Edema inhibiting rate against control group, +21 day, Left / Edema inhibiting rate against control group, +21 day, Right: day 21; for Edema inhibiting rate against control group, +14 day, Right / Edema inhibiting rate against control group, +21 day, Right: right hindpaw; for Zonal bone damage inhibiting rate against control group, +22 day: soft X-ray of hindlegs, day 22
Protocol: When a Mycobacterium butyricum adjuvant is injected into a rat, there occurs polyarthritis similar to human rheumatoid arthritis. Using such an adjuvant arthritis model, the anti-inflammatory and anti-rheumatic effects of the compounds of the present invention and the reference were examined according to the following procedure.
0.1 mg of dry dead Mycobacterium butyricum was suspended in 0.1 ml of liquid paraffin, and the suspension was injected into the skin of the sole of the left hindpaw of a Lewis female rat, 7-weeks old. The compounds obtained in Examples 2 and 4 and Reference were respectively dissolved in sterilized distilled water and orally administered at a dose of 50 mg per kg of body weight every day for two weeks from the 8th to 21st day after adjuvant injection. The volumes of the left and right hindpaws were measured. Edema density was calculated according to the formula [formula] and the Edema inhibiting rate was obtained according to the formula [formula] with the results shown in Table 1.
On the 22nd day, the rats were sacrificed, and soft X-ray photos of the left and right hind-legs were taken, and, based on the soft X-ray photos, the extent of bone damage at 5 zones on the left and right hindlegs was evaluated in points of 5 ranks, and the total points were taken as the zonal bone damage index. Further, the zonal bone damage inhibiting rate was calculated according to the formula [formula] with the results shown in Table 1.
The results thus obtained had ** noted for those which were significant according to the Student t-test and Tukey multiple comparison method with a perilous rate p<0.02 against the control group having only the sterilized distilled water administered and * noted for those which were significant with a perilous rate p<0.05.

Acute toxicity test = assay type: in vivo, rat; conditions: rat, in vivo, iv, 14 days, distilled water
Protocol: (§1) Using female and male SD rats (5-week age), 6 rats per group, and a 10% aqueous solution of gum arabic for oral administration, and distilled water for intravenous administration as a solvent for the compound to be tested, mortality, during 14 days after administration were recorded, and the LD50 values were calculated according to the Miller and Tainter Method (1944).

SD rats = assay: Acute toxicity test; assay type: in vivo, rat; conditions: 14 days, 20160 min
Protocol: as §1

[1] = Oral, Female SD rats, 10% gum arabic
[2] = Oral, Male SD rats, 10% gum arabic

| Compound | inhibition at 10 µM (osteoclasts; 10^-5 M) [%] | inhibition at 1 µM (osteoclasts; 10^-6 M) [%] | Edema inhibiting rate against control group, +14 day, Left (Lewis female rat) [%] | Edema inhibiting rate against control group, +21 day, Left (Lewis female rat) [%] | Edema inhibiting rate against control group, +14 day, Right (Lewis female rat) [%] | Edema inhibiting rate against control group, +21 day, Right (Lewis female rat) [%] | Zonal bone damage inhibiting rate against control group, +22 day (Lewis female rat) [%] | LD50 at 336 h (Acute toxicity test; Female SD rats) [mg/kg] | LD50 at 336 h (Acute toxicity test; Male SD rats) [mg/kg] | LD50 Values (SD rats; [1]) [mg/kg] | LD50 Values (SD rats; [2]) [mg/kg] | LD50 Values (SD rats; Intravenous, Female SD rats, distilled water) [mg/kg] | LD50 Values (SD rats; Intravenous, Male SD rats, distilled water) [mg/kg] |
| --- | --- | --- | --- | --- | --- | --- | --- | --- | --- | --- | --- | --- | --- |
| CC(C)(C)c1cc(SC(P(=O)(O)O)P(=O)(O)O)cc(C(C)(C)C)c1O [Example 2, (3,5-di-t-butyl-4-hydroxyphenylthio)methylenediphosphonic acid] | 86 | 48 | 29.2 | 33.8 | 39.7 | 30.4 | 32.5 | 29.8 | 45.2 | 616 | 652 |  |  |
| CC(C)(C)c1cc(CC(P(=O)(O)O)P(=O)(O)O)cc(C(C)(C)C)c1O [Example 4, 2-(3,5-di-t-butyl-4-hydroxyphenyl)ethylidene-1,1-di-phosphonic acid] |  |  | 2.6 | 9.7 | 31.6 | 21.6 | 29.4 |  |  |  |  |  |  |
| CC(C)(C)c1cc(SC(P(=O)(O)O)P(=O)(O)O)cc(C(C)(C)C)c1O [Example 8, Disodium(3,5-di-t-butyl-4-hydroxyphenylthio)methylenediphosphonate] |  |  |  |  |  |  |  |  |  | 1770 | 1871 | 35.7 | 48.2 |
| O=P(O)(O)C(Cc1ccc(O)cc1)P(=O)(O)O [Reference compound, 2-(4-hydroxyphenyl)ethylidene-1,1-diphosphonic acid, reference compound] |  |  | 4.4 | 0.9 | 7.9 | 6.9 | 0 |  |  |  |  |  |  |
